Assay results reported in patent US20260256792A1, “TREATMENT OF CHRONIC SPONTANEOUS URTICARIA BY ADMINISTERING (R)-2-[3-[4-AMINO-3-(2-FLUORO-4-PHENOXY-PHENYL)PYRAZOLO[3,4-D]PYRIMIDIN-1-YL]PIPERIDINE-1-CARBONYL]-4-METHYL-4-[4-(OXETAN-3-YL)PIPERAZIN-1-YL]PENT-2-ENENITRILE” (priority 2023, published 2026).

Tested on: moderate-to-severe chronic spontaneous urticaria (CSU)
Test: Phase 2 CSU study: itch severity score over 7 days (ISS7)
Assay type: in vivo, human
Text: The study comprises a 12 week, randomized, double-blind, placebo-controlled, multi-center, dose-ranging efficacy and safety phase, followed by a 40 week open label extension (OLE) phase (see FIG. 1). The study consists of three phases and an optional OLE phase. […] Clinically, CSU is characterized by the spontaneous and recurrent appearance of pruritic hives. The proposed primary endpoints were the UAS7 at Week 12 in EU and EU reference countries and the ISS7 in the US. Regardless of where a participant was from, all assessments were the same. The UAS7 score is a composite score containing both the HSS7 and the ISS7. This allowed a global assessment of the two key components of urticaria: hives and itch. […] The UAS is a validated PRO measure. […] The daily UAS scores range from 0 to 6 point/day. […] Patients were to complete the UAS using the e-diary. […] The following secondary endpoints were to be analyzed using the same approach as for the primary endpoint: • Change from baseline in UAS7 at Week 4 • Change from baseline in UAS7 at Week 12 (for US and US reference countries) • Change from baseline in ISS7 at Week 12 (except US and US reference countries) • Change from baseline in HSS7 at Week 12

[1] = Week 2, 400 mg BID, Omalizumab-Naïve
[2] = Week 2, 400 mg BID, Prior Omalizumab Use
[3] = Week 2, 400 mg QPM, Omalizumab-Naïve
[4] = Week 2, 400 mg QPM, Prior Omalizumab Use
[5] = Week 2, 400 mg TID, Omalizumab-Naïve
[6] = Week 2, 400 mg TID, Prior Omalizumab Use
[7] = Week 3, 400 mg BID, Omalizumab-Naïve
[8] = Week 3, 400 mg BID, Prior Omalizumab Use
[9] = Week 3, 400 mg QPM, Omalizumab-Naïve
[10] = Week 3, 400 mg QPM, Prior Omalizumab Use
[11] = Week 3, 400 mg TID, Omalizumab-Naïve
[12] = Week 3, 400 mg TID, Prior Omalizumab Use
[13] = Week 4, 400 mg BID, Omalizumab-Naïve
[14] = Week 4, 400 mg BID, Prior Omalizumab Use
[15] = Week 4, 400 mg QPM, Omalizumab-Naïve
[16] = Week 4, 400 mg QPM, Prior Omalizumab Use
[17] = Week 4, 400 mg TID, Omalizumab-Naïve

In the case of `CC(C)(C=C(C#N)C(=O)N1CCC[C@@H](n2nc(-c3ccc(Oc4ccccc4)cc3F)c3c(N)ncnc32)C1)N1CCN(C2COC2)CC1` [rilzabrutinib, (R)-2-[3-[4-amino-3-(2-fluoro-4-phenoxy-phenyl)pyrazolo[3,4-d]pyrimidin-1-yl]piperidine-1-carbonyl]-4-methyl-4-[4-(oxetan-3-yl)piperazin-1-yl]pent-2-enenitrile], the “ISS7 Percent change from baseline Mean (SD)” value (“ISS7 Percent change … (SD)” for short) [1] is reported as −34.40 (31.27) %, the “ISS7 Percent change from baseline Median” value [1] is reported as −25.06% and the “ISS7 Change from baseline Mean (SD)” value [2] is reported as −7.00 (7.04). For the same compound, the “ISS7 Change from baseline Median” value [2] was −5.50, the “ISS7 Mean (SD)” value [2] was 10.83 (6.85) and the “ISS7 Median” value [2] was 13.50. For the same compound, the “ISS7 Percent change … (SD)” value [2] was −38.76 (40.94) %, the “ISS7 Percent change from baseline Median” value [2] was −28.17% and the “ISS7 Change from baseline Mean (SD)” value [3] was −3.84 (4.75). For the same compound, the “ISS7 Change from baseline Median” value [3] was −3.00, the “ISS7 Median” value [3] was 12.00 and the “ISS7 Percent change … (SD)” value [3] was −22.08 (27.52) %. The “ISS7 Percent change from baseline Median” value [3] was −17.11%, the “ISS7 Change from baseline Mean (SD)” value [4] was −12.00 (NC) and the “ISS7 Change from baseline Median” value [4] was −12.00. The “ISS7 Mean (SD)” value [4] was 9.00 (NC), the “ISS7 Median” value [4] was 9.00 and the “ISS7 Percent change … (SD)” value [4] was −57.14 (NC) %. The “ISS7 Percent change from baseline Median” value [4] was −57.14%, the “ISS7 Change from baseline Mean (SD)” value [5] was −7.29 (6.09) and the “ISS7 Change from baseline Median” value [5] was −7.00. For the same compound, the “ISS7 Mean (SD)” value [5] was 8.40 (5.82), the “ISS7 Median” value [5] was 8.00 and the “ISS7 Percent change … (SD)” value [5] was −46.12 (36.57) %. For the same compound, the “ISS7 Percent change from baseline Median” value [5] was −46.89%, the “ISS7 Mean (SD)” value [6] was 5.50 (6.95) and the “ISS7 Median” value [6] was 4.00. The “ISS7 Percent change … (SD)” value [6] was −69.74 (33.53) %, the “ISS7 Percent change from baseline Median” value [6] was −77.08% and the “ISS7 Change from baseline Mean (SD)” value [7] was −6.29 (5.74). The “ISS7 Change from baseline Median” value [7] was 5.00, the “ISS7 Mean (SD)” value [7] was 9.16 (6.09) and the “ISS7 Median” value [7] was 9.00. The “ISS7 Percent change … (SD)” value [7] was −40.77 (35.75) %, the “ISS7 Percent change from baseline Median” value [7] was −26.67% and the “ISS7 Change from baseline Mean (SD)” value [8] was −8.31 (8.28). The “ISS7 Change from baseline Median” value [8] was −9.00, the “ISS7 Mean (SD)” value [8] was 9.53 (7.26) and the “ISS7 Percent change … (SD)” value [8] was −44.35 (43.62) %. For the same compound, the “ISS7 Percent change from baseline Median” value [8] was −47.22%, the “ISS7 Change from baseline Mean (SD)” value [9] was −4.77 (4.84) and the “ISS7 Change from baseline Median” value [9] was −3.67. For the same compound, the “ISS7 Mean (SD)” value [9] was 11.60 (4.68), the “ISS7 Percent change … (SD)” value [9] was −27.79 (26.72) % and the “ISS7 Percent change from baseline Median” value [9] was −23.81%. For the same compound, the “ISS7 Change from baseline Mean (SD)” value [10] was −12.00 (NC), the “ISS7 Change from baseline Median” value [10] was −12.00 and the “ISS7 Mean (SD)” value [10] was 9.00 (NC). For the same compound, the “ISS7 Median” value [10] was 9.00, the “ISS7 Percent change … (SD)” value [10] was −57.14 (NC) % and the “ISS7 Percent change from baseline Median” value [10] was −57.14%. The “ISS7 Change from baseline Mean (SD)” value [11] was −7.34 (6.48), the “ISS7 Change from baseline Median” value [11] was −7.00 and the “ISS7 Mean (SD)” value [11] was 8.34 (5.42). The “ISS7 Median” value [11] was 8.40, the “ISS7 Percent change … (SD)” value [11] was −49.02 (33.06) % and the “ISS7 Percent change from baseline Median” value [11] was −48.53%. For the same compound, the “ISS7 Mean (SD)” value [12] was 5.50 (5.50), the “ISS7 Median” value [12] was 5.00 and the “ISS7 Percent change … (SD)” value [12] was −66.98 (26.87) %. For the same compound, the “ISS7 Percent change from baseline Median” value [12] was −64.58%, the “ISS7 Change from baseline Mean (SD)” value [13] was −6.94 (6.13) and the “ISS7 Change from baseline Median” value [13] was −5.83. The “ISS7 Mean (SD)” value [13] was 8.32 (6.02), the “ISS7 Median” value [13] was 7.00 and the “ISS7 Percent change … (SD)” value [13] was −44.87 (37.61) %. The “ISS7 Percent change from baseline Median” value [13] was −41.67%, the “ISS7 Change from baseline Mean (SD)” value [14] was −11.80 (8.35) and the “ISS7 Change from baseline Median” value [14] was −14.00. For the same compound, the “ISS7 Mean (SD)” value [14] was 6.80 (8.53), the “ISS7 Median” value [14] was 1.00 and the “ISS7 Percent change … (SD)” value [14] was −64.22 (45.05) %. For the same compound, the “ISS7 Percent change from baseline Median” value [14] was −93.33%, the “ISS7 Change from baseline Mean (SD)” value [15] was −4.99 (5.13) and the “ISS7 Change from baseline Median” value [15] was −4.00. For the same compound, the “ISS7 Mean (SD)” value [15] was 11.39 (4.79), the “ISS7 Percent change … (SD)” value [15] was −28.81 (27.96) % and the “ISS7 Percent change from baseline Median” value [15] was −23.81%. The “ISS7 Change from baseline Mean (SD)” value [16] was −13.00 (NC), the “ISS7 Change from baseline Median” value [16] was −13.00 and the “ISS7 Mean (SD)” value [16] was 8.00 (NC). The “ISS7 Median” value [16] was 8.00, the “ISS7 Percent change … (SD)” value [16] was −61.90 (NC) % and the “ISS7 Percent change from baseline Median” value [16] was −61.90%. For the same compound, the “ISS7 Change from baseline Mean (SD)” value [17] was −8.30 (5.13), the “ISS7 Change from baseline Median” value [17] was −8.00 and the “ISS7 Mean (SD)” value [17] was 7.79 (5.03). For the same compound, the “ISS7 Median” value [17] was 7.50, the “ISS7 Percent change … (SD)” value [17] was −51.09 (29.31) % and the “ISS7 Percent change from baseline Median” value [17] was −50.00%. The “ISS7 Change from baseline Mean (SD)” value (Week 4, 400 mg TID, Prior Omalizumab Use) was −10.83 (7.32).
